Source: patent US20080004317A1, “Compounds” (AstraZeneca AB, priority 2004, published 2008)
Values after ≈ are worked out from the molar mass of the structure shown.

Assays:
[1] = molecular target: T1, Recombinant human MMP12 catalytic domain (Homo sapiens, UniProt P39900); test: MMP12 isolated enzyme assay; assay type: biochemical; settings: read-out: hMMP12 IC50
T1 construct: Recombinant human MMP12 catalytic domain; made in house
Protocol: Recombinant human MMP12 catalytic domain may be expressed and purified as described by Parkar A. A. et al, (2000), Protein Expression and Purification, 20, 152. The purified enzyme can be used to monitor inhibitors of activity as follows: MMP12 (50 ng/ml final concentration) is incubated for 60 minutes at room temperature with the synthetic substrate Mca-Pro-Cha-Gly-Nva-His-Ala-Dpa-NH2 (10 μM) in assay buffer (0.1M “Tris-HCl”™ buffer, pH 7.3 containing 0.1M NaCl, 20 mM CaCl2, 0.020 mM ZnCl and 0.05% (w/v) “Brij 35”™ detergent) in the presence (10 concentrations) or absence of inhibitors. Activity is determined by measuring the fluorescence at λex 320 nm and λem 405 nm. Percent inhibition is calculated as follows: % Inhibition is equal to the [Fluorescenceplus inhibitor−Fluorescencebackground] divided by the [Fluorescenceminus inhibitor−Fluorescencebackground]. MMP8

[2] = molecular target: T2, MMP8 (Homo sapiens, UniProt P22894); test: MMP8 isolated enzyme assay; assay type: biochemical; settings: read-out: hMMP8 IC50
T2 construct: purchased Calbiochem
Protocol: Purified pro-MMP8 is purchased from Calbiochem. The enzyme (at 10 μg/ml) is activated by p-amino-phenyl-mercuric acetate (APMA) at 1 mM for 2.5 h, 35° C. The activated enzyme can be used to monitor inhibitors of activity as follows: MMP8 (200 ng/ml final concentration) is incubated for 90 minutes at 35° C. (80% H2O) with the synthetic substrate Mca-Pro-Cha-Gly-Nva-His-Ala-Dpa-NH2 (12.5 μM) in assay buffer (0.1M “Tris-HCl”™ buffer, pH 7.5 containing 0.1M NaCl, 30 mM CaCl2, 0.040 mM ZnCl and 0.05% (w/v) “Brij 35”™ detergent) in the presence (10 concentrations) or absence of inhibitors. Activity is determined by measuring the fluorescence at λex 320 nm and λem 405 nm. Percent inhibition is calculated as follows: % Inhibition is equal to the [Fluorescenceplus inhibitor−Fluorescencebackground] divided by the [Fluorescenceminus inhibitor−Fluorescencebackground]. MMP9

[3] = Solubility in 0.1M phosphate buffer, pH 7.4; assay type: physicochemical; settings: aqueous buffer, thermodynamic from solid, pH 7.4, 20° C.
Protocol: Protocol for Determination of Solubility
The test compound (1 mg) was weighed into a 2 mL glass vial with a screw cap and 0.1M phosphate buffer pH 7.4. (1.00 mL) was added. The sample vial was then sonicated for about 10 minutes and then placed on a shake board overnight at 20° C. The contents of the sample vial were then filtered through a Millipore Millex-LH 0.45 μm filter into a new 2 mL glass vial to give a clear solution. The clear solution (40 μL) was transferred to a new 2 mL glass vial and diluted with 0.1M phosphate buffer, pH 7.4 (960 μL).
A standard calibration curve for each particular test compound was established using solutions of known concentration. These solutions of known concentration were normally chosen to have concentrations of ˜10 μg/mL and ˜50 μg/mL. They were prepared by dissolving a known weight of the compound in 99.5% ethanol (500 μL) and then sonicating for one minute if necessary. If the compound was still not completely dissolved, DMSO (500 μL) was added and the mixture sonicated for an additional one minute. The resulting solution was then diluted to the appropriate volume with a mixture of acetonitrile/100 mM ammonium acetate pH 5.5 20-50/80-50. If necessary, a further, more dilute, standard solution was prepared by dilution.

[4] = molecular target: T3, Recombinant human MMP14 catalytic domain (Homo sapiens, UniProt P50281); test: MMP14 isolated enzyme assay; assay type: biochemical; settings: read-out: hMMP14 IC50
T3 construct: Recombinant human MMP14 catalytic domain; made in house
Protocol: Recombinant human MMP14 catalytic domain may be expressed and purified as described by Parkar A. A. et al, (2000), Protein Expression and Purification, 20, 152. The purified enzyme can be used to monitor inhibitors of activity as follows: MMP14 (10 ng/ml final concentration) is incubated for 60 minutes at room temperature with the synthetic substrate Mca-Pro-Cha-Gly-Nva-His-Ala-Dpa-NH2 (10 μM) in assay buffer (0.1M “Tris-HCl” (trade mark) buffer, pH 7.5 containing 0.1M NaCl, 20 mM CaCl2, 0.020 mM ZnCl and 0.05% (w/v) “Brij 35”™ detergent) in the presence (5 concentrations) or absence of inhibitors. Activity is determined by measuring the fluorescence at λex 320 nm and λem 405 nm. Percent inhibition is calculated as follows: % Inhibition is equal to the [Fluorescenceplus inhibitor−Fluorescencebackground] divided by the [Fluorescenceminus inhibitor−Fluorescencebackground].

[5] = molecular target: T4, Recombinant human MMP9 catalytic domain (Homo sapiens, UniProt P14780); test: MMP9 isolated enzyme assay; assay type: biochemical; settings: read-out: hMMP9 IC50
T4 sequence (P14780 with tags, fused parts or gaps DEL216-390 limits assumed): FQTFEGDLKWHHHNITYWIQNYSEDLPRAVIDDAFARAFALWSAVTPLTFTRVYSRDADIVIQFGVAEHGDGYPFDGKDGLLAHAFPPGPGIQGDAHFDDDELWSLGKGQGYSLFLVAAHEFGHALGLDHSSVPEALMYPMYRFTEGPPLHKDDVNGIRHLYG
Protocol: Recombinant human MMP9 catalytic domain was expressed and then purified by Zn chelate column chromatography followed by hydroxamate affinity column chromatography. The enzyme can be used to monitor inhibitors of activity as follows: MMP9 (5 ng/ml final concentration) is incubated for 30 minutes at RT with the synthetic substrate Mca-Pro-Cha-Gly-Nva-His-Ala-Dpa-NH2 (5 μM) in assay buffer (0.1M “Tris-HCl”™ buffer, pH 7.3 containing 0.1M NaCl, 20 mM CaCl2, 0.020 mM ZnCl and 0.05% (w/v) “Brij 35”™ detergent) in the presence (10 concentrations) or absence of inhibitors. Activity is determined by measuring the fluorescence at λex 320 nm and λem 405 nm. Percent inhibition is calculated as follows: % Inhibition is equal to the [Fluorescenceplus inhibitor−Fluorescencebackground] divided by the [Fluorescenceminus inhibitor−Fluorescencebackground]. MMP14
A protocol for testing against other matrix metalloproteinases, including MMP9, using expressed and purified pro MMP is described, for instance, by C. Graham Knight et al., (1992) FEBS Lett., 296(3), 263-266.

[6] = tested on: plasma protein; test: Plasma protein binding by ultrafiltration; assay type: in vitro ADME; settings: 10 μM
Protocol: Plasma protein binding was determined by ultrafiltration in an automated 96 well format assay. On each test occasion the plasma protein binding of a reference compound (budesonide) was monitored in parallel.
Test compounds (10 mM dissolved in DMSO) were added to plasma to a final concentration of 10 μM and equilibrated at room temperature for 10 minutes. 350 μL of the plasma was transferred to an ultrafiltration plate, Microcon-96 (10 kDa cutoff, Millipore). The ultrafiltration plate was centrifuged at 3000 G for 70 minutes at room temperature. After centrifugation, the concentration of the compounds in the obtained plasma water (the unbound fraction) was determined by LC-MS/MS using a 3-point calibration curve and compared to the concentration in the original spiked plasma.
The analyses were performed using a gradient chromatographic system with acetic acid/acetonitrile as mobile phases. The detection was done using a triple quadropole mass spectrometer, API3000 or API4000, from Applied Biosystems, with an electrospray interface.

T2 sequence (P22894 101-467): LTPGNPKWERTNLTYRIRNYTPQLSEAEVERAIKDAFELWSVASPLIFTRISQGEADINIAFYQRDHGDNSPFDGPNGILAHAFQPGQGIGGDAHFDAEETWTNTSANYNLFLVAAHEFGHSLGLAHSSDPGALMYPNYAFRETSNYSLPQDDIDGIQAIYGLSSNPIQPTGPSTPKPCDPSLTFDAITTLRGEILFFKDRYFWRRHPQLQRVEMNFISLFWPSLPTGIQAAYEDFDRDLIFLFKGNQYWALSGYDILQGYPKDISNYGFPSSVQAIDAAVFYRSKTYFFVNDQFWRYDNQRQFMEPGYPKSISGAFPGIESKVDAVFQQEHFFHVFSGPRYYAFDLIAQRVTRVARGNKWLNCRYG
T1 sequence (P39900 106-263 limits assumed): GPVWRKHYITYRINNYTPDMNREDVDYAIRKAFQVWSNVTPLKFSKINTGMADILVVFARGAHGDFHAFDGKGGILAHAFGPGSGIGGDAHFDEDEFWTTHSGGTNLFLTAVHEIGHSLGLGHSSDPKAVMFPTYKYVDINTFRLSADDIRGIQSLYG

Row | IC50 [1] [nM] | IC50 [2] [nM] | solubility [3] [µM] | IC50 [4] [nM] | IC50 [5] [nM] | Protein binding (% free) [6] [% free] | SMILES
1 | 5 | 430 | 41 (≈ 18.1 µg/mL) | > 10000 | 7 |  | C[C@]1(CS(=O)(=O)N2CC=C(C#Cc3ccc(C(F)(F)F)nc3)CC2)NC(=O)NC1=O [Example 5, (5S)-5-Methyl-5-({[4-{[6-(trifluoromethyl)pyridin-3-yl]ethynyl}-3,6-dihydropyridin-1(2H)-yl]sulfonyl}methyl)imidazolidine-2,4-dione]
2 | 140 | > 1000 | 1600 (≈ 598 µg/mL) | > 1000 | 11200 |  | C[C@]1(CS(=O)(=O)N2CC=C(C#Cc3ccccn3)CC2)NC(=O)NC1=O [WO 02/074767, page 119, (5S)-5-methyl-5-({[4-(pyridin-2-ylethynyl)-3,6-dihydropyridin-1(2H)-yl]sulfonyl}-methyl)-imidazolidine-2,4-dione, reference compound]
3 | 3 | 780 | 1300 (≈ 522 µg/mL) | > 10000 | 8 | 9.7 | CCc1ccc(C#CC2=CCN(S(=O)(=O)C[C@@]3(C)NC(=O)NC3=O)CC2)cn1 [Example 4, (5S)-5-({[4-[(6-Ethylpyridin-3-yl)ethynyl]-3,6-dihydropyridin-1-(2H)-yl]sulfonyl}methyl)-5-methylimidazolidine-2,4-dione]
